# Patent US10336746B1, “RAD51 inhibitors” (Cyteir Therapeutics, Inc., priority 2017, dated 2019)
# Key:
# [1] = test system: Daudi cell line (AID positive); assay: Primary screening cell killing assay, Daudi cell line (AID positive); assay type: cell-based; conditions: Homo sapiens, 168 h, cell death on Day 7, Cell-Titer Glo
# How it was run: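 AID-positive Daudi cells, 1250 per well, were exposed to serially diluted compounds for 7 days at 37° C. Viability read by CellTiter-Glo luminescence; percent cell death and EC50 derived against untreated wells after media-blank subtraction.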
# [2] = test system: WI-38 cells (AID negative); assay: Primary screening cell killing assay repeated in WI-38 cells (AID negative); assay type: cell-based; conditions: Homo sapiens, 168 h, cell death on Day 7, Cell-Titer Glo
# How it was run: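 Cell-killing counter-screen in AID-negative WI-38 cells, probing RAD51 inhibition via AID/RAD51 synthetic lethality. Viability luminescence (RLU) was media-subtracted, normalized to DMSO wells, and converted to percent kill (1 − normalized RLU) × 100; EC50 came from non-linear regression on a semi-log scale.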
# Daudi (Lymphoma) = assay: Cell line screen, Daudi; assay type: cell-based; conditions: Homo sapiens, AICDA Expression High
# Procedure: (§1) The activity of the claimed compounds was measured in a variety of cell lines with different expression levels of activation induced cytidine deaminase (AICDA). The potency assay was repeated in all of the listed cell lines and the EC50 values recorded.
# WSU-FSCCL (Lymphoma) = assay: Cell line screen, WSU-FSCCL; assay type: cell-based; conditions: AICDA Expression Negative
# Procedure: as §1
# U-698-M (Lymphoma) = assay: Cell line screen, U-698-M; assay type: cell-based; conditions: AICDA Expression High
# Procedure: as §1
# CCRF-SB (Leukemia) = assay: Cell line screen, CCRF-SB; assay type: cell-based; conditions: Homo sapiens, AICDA Expression High
# Procedure: as §1
# KYSE-70 (Head and Neck) = assay: Cell line screen, KYSE-70; assay type: cell-based; conditions: Homo sapiens, AICDA Expression Low
# Procedure: as §1
# SNU-1 (Gastric) = assay: Cell line screen, SNU-1; assay type: cell-based; conditions: Homo sapiens, SNU1, AICDA Expression Negative
# Procedure: as §1
# KG-1 (Leukemia) = assay: Cell line screen, KG-1; assay type: cell-based; conditions: AICDA Expression Negative
# Procedure: as §1
# KYSE-510 (Head and Neck) = assay: Cell line screen, KYSE-510; assay type: cell-based; conditions: Homo sapiens, AICDA Expression Negative
# Procedure: as §1
# SNU-5 (Gastric) = assay: Cell line screen, SNU-5; assay type: cell-based; conditions: Homo sapiens, AICDA Expression Low
# Procedure: as §1
# OV56 (Ovary) = assay: Cell line screen, OV56; assay type: cell-based; conditions: AICDA Expression Low
# Procedure: as §1
# [3] = test system: WI-38 (Normal Human Lung Fibroblast); assay: Cell line screen, WI-38; assay type: cell-based; conditions: AICDA Expression Negative
# Procedure: as §1
# [4] = Pharmacokinetic (PK) study, plasma by LC-MS; assay type: in vivo, Rat; conditions: po @ 80 mg/kg (30% PEG400, 10% Vitamin E TPGS in water); for half-life: plasma
# Procedure: PK studies in mice were used to determine the fate of the compounds in a whole organism. Rats were treated with the compounds either orally of via IV at the indicated doses and followed for up to 24 hours. Plasma samples were taken at different time points and analyzed by LC-MS.
SMILES,EC50 [1] [µM],EC50 [2] [µM],EC50 (Daudi (Lymphoma)) [µM],EC50 (WSU-FSCCL (Lymphoma)) [µM],EC50 (U-698-M (Lymphoma)) [µM],EC50 (CCRF-SB (Leukemia)) [µM],EC50 (KYSE-70 (Head and Neck)) [µM],EC50 (SNU-1 (Gastric)) [µM],EC50 (KG-1 (Leukemia)) [µM],EC50 (KYSE-510 (Head and Neck)) [µM],EC50 (SNU-5 (Gastric)) [µM],EC50 (OV56 (Ovary)) [µM],EC50 [3] [µM],F (%) @ 5 mg/kg ([4]; Rat Female) [%],F (%) @ 5 mg/kg ([4]; Rat Male) [%],half-life ([4]; Rat Female) [h],half-life ([4]; Rat Male) [h]
"CC(C)OC(=O)N[C@H]1CC[C@H](c2ncc(-c3ccc(NC(=O)NCc4ccccc4)cc3S(=O)(=O)NC(C)(C)C)s2)CC1 [Ex. 66A, trans-isopropyl N-[4-[5-[4-(benzylcarbamoylamino)-2-(tert-butylsulfamoyl)phenyl]thiazol-2-yl]cyclohexyl]carbamate]",≤ 0.1,> 1,0.018,0.025,0.088,0.183,2.64,0.609,3.07,4.52,2.94,5.94,> 10,3.31,2.55,2.59,1.86
"CC(C)OC(=O)Nc1ccc(-c2cnc([C@H]3CC[C@H](NC(=O)OC(C)C)CC3)s2)c(S(=O)(=O)NC(C)(C)C)c1 [Ex. 67A, trans-isopropyl N-[3-(tert-butylsulfamoyl)-4-[2-[4-(isopropoxycarbonylamino)cyclohexyl]thiazol-5-yl]phenyl]carbamate]",0.1 to 1,> 1,0.311,0.344,0.791,0.932,2.63,2.93,3,3.4,3.85,7.23,> 10,86.5,46.9,11.5,6.46
